Five molecules from article PMC7115430 (European Journal of Medicinal Chemistry, 2014) can be followed below.

Read-outs that look alike come from different tables or passages of the source.

A short description of one data set: in vitro. To be noted: dog.
The test system of a further data set is Vero cells. To be noted: microscopically detectable alteration of normal cell morphology.
Another data set concerns Reovirus-1. Put plainly: organism not typed. It is filed as cell-based. The following applies: Vero, read-out: EC50 Reovirus-1.
A further data set has as its system Para-influenza-3 virus. Put plainly: organism not typed. It is filed as cell-based. The following applies: Vero, read-out: EC50 Para-influenza-3 virus.
The subject of another data set is Punta toro virus. Description: microbe, parasite or virus in culture. To be noted: Vero, read-out: EC50 Punta toro virus. Format: cell-based.
The subject of another data set is Sindbis virus. Put plainly: microbe, parasite or virus in culture. It is filed as cell-based. The following applies: Vero, read-out: EC50 Sindbis virus.
A further data set deals with Influenza B. Put plainly: microbe, parasite or virus in culture. It is filed as cell-based. To be noted: MDCK.
Where [1] appears, read: read-out: Antiviral EC50 Influenza B MTS.
[2] abbreviates: read-out: Antiviral EC50 Influenza B Visual CPE score.

As for `CC(N)C12CC3CC(CC(C3)C1)C2` (stereo not shown) [Rimantadine], the CC50 in “in vitro” was more than 500 µM.
`Nc1ncnc2c1ncn2C[C@H](O)CO` [(S)-DHPA] returned a Minimum cytotoxic concentration in the data set with Vero cells of more than 250 µM. Also, the EC50 in the data set on Reovirus-1, in the data set on Para-influenza-3 virus, with Punta toro virus and with Sindbis virus was more than 250 µM in each case.
For the molecule `CCC(CC)O[C@@H]1C=C(C(=O)O)C[C@H](N)[C@H]1NC(C)=O` [Oseltamivir carboxylate], the EC50 with Influenza B (setting [1]) came out at 6.2 ± 0.33 µM; with Influenza B (setting [2]), 4 ± 0.11 µM. Also, in the data set “in vitro”, the CC50 is more than 100 µM.
The molecule `NC12CC3CC(CC(C3)C1)C2` [Amantadine] came in with a CC50 in “in vitro” of more than 500 µM.
For `NC(=O)c1ncn([C@@H]2O[C@H](CO)[C@@H](O)[C@H]2O)n1` [Ribavirin], in the data set with Vero cells, the Minimum cytotoxic concentration is more than 250 µM. Moreover, the EC50 in the data set on Reovirus-1 was more than 250 µM; in the data set with Para-influenza-3 virus, 112 µM; in the data set on Influenza B (setting [1]), 9.6 ± 0.98 µM; in the data set on Influenza B (setting [2]), 9 ± 0.56 µM; in the data set on Sindbis virus, more than 250 µM.
